Assay: Stability of crystalline forms of 5-CNAC (room temperature, humidity, storage)

Row | form conversion on storage (storage of the mixture of Forms I and IV (Example 5) over time) | Compound | stability as a function of relative humidity (relative humidity below about 50%)
1 | convert to Form I over time on storage | O=C([O-])CCCCCCCNC(=O)c1cc(Cl)ccc1[O-].[Na+].[Na+] [Form IV, di-sodium salt of N-(5-chlorosalicyloyl)-8-aminocaprylic acid] | –
2 | – | O=C([O-])CCCCCCCNC(=O)c1cc(Cl)ccc1[O-].[Na+].[Na+] [Form III, di-sodium salt of N-(5-chlorosalicyloyl)-8-aminocaprylic acid] | unstable at a relative humidity below about 50%

Source: US9238074B2, “Crystalline forms of the di-sodium salt of N-(5-chlorosalicyloyl)-8-aminocaprylic acid” (Emisphere Technologies, Inc., priority 2005, dated 2016)
